Columns and labels:
[1] = system: CFPAC-1 (ductal pancreatic adenocarcinoma); experiment: MTT assay, CFPAC-1; assay type: cell-based; conditions: Homo sapiens, 72 h
Experimental: (§1) The tested compounds were dissolved in DMSO in five, 10-fold dilutions (0.01–100 µM). The cell lines HeLa (cervical carcinoma), SW620 (colorectal adenocarcinoma, metastatic), HepG2 (hepatocellular carcinoma), CFPAC-1 (ductal pancreatic adenocarcinoma), and WI38 (human lung fibroblast cell line), were cultured as monolayers and maintained in Dulbecco’s modified Eagle medium (DMEM) supplemented with 10% fetal bovine serum (FBS), 2 mM L-glutamine, 100 U mL^−1 penicillin and 100 μg mL^−1 streptomycin in a humidified atmosphere with 5% CO2 at 37 °C.
(§2) The MTT assay was used for evaluation of effects of tested compounds on viability of carcinoma and control cell lines. About 5000 cells per well were seeded onto a series of standard 96-well plates on day 0. Test agents were then added and incubated for further 72 h. Working dilutions of tested compounds were freshly prepared in the growth medium, on the day of testing. The solvent (DMSO) was also tested for eventual inhibitory activity by adjusting its concentration to be the same as in the working concentrations (DMSO concentration never exceeded 0.1%). After 72 h of incubation, the cell growth rate was evaluated by performing the MTT assay: experimentally determined absorbance values were transformed into a cell percentage growth (PG) using the formulas proposed by NIH and described previously. This method directly relies on control cells number at the day of assay because it compares the growth of treated cells with the growth of untreated cells in control wells on the same plate, the results are therefore a percentile difference from the calculated expected value.
(§3) If, however, all of the tested concentrations produce PGs exceeding the respective reference level of effect (e.g., PG value of 50) for a given cell line, the highest tested concentration is assigned as the default value (in the screening data report that default value is preceded by a “>” sign). Each test point was performed in quadruplicate in three individual experiments. The results were statistically analyzed (Analysis of variance (ANOVA), Tukey post-hoc test at p < 0.05). Finally, the effects of the tested substances were evaluated by plotting the mean percentage growth for each cell type in comparison to control on dose response graphs.

phospho (Ser 473) Akt [2] = experiment: Western blot, pAkt in HepG2 cells; assay type: cell-based, human; conditions: IC50 concentration, 24 h and 48 h
Experimental: (§4) Protein lysates were lysed in the buffer 50 mM Tris HCl (pH 8), 150 mM NaCl, 1% NP-40, 0.5% sodium deoxycholate, 0.1% SDS and protease and phosphatase inhibitor cocktail (Roche, Basel, Switzerland). A total of 50 μg of proteins were resolved on 10% SDS polyacrylamide gels by use of Mini-protean cell (Bio-Rad, Hercules, CA, USA). Membranes were incubated with primary antibodies against phospho (Tyr 1135) -IGF1 Receptor β (1:1000, rabbit mAb, Cell Signalling Technology, Danvers, MA, USA), phospho (Ser 473) Akt (1:1000, rabbit mAb, Cell Signalling Technology) and α tubulin (1:1000, mouse mAb, Sigma Aldrich) at 4 °C overnight. Secondary antibody linked to anti-mouse was used at 1:1000 (Dako, Santa Clara, CA, USA) and to anti-rabbit at 1:1000 (Dako). Signals were visualized by Western Lightening Chemiluminescence Reagent Plus Kit (Perkin Elmer, USA) on the ImageQuant LAS500 (GE Healthcare, Chicago, IL, USA). Signal intensities of particular bands were normalized with the intensity of the loading control α tubulin and compared in Quantity One software (Bio-Rad). The values are expressed as average value of three independent experiments ± standard error of the mean. Statistical analysis was performed in Microsoft Excel (Microsoft Corporation, Redmond, WA, USA) by using the ANOVA (p < 0.05).

[3] = system: phospho (Tyr 1135) -IGF1 Receptor β; experiment: Western blot, IGF1 Receptor β activated form in HeLa cells; assay type: cell-based, human; conditions: IC50 concentration, 24 and 48 h treatments
Experimental: as §4

[4] = MTT assay, WI38 healthy control; assay type: cell-based; conditions: WI38 human lung fibroblast cells, WI38 healthy control human fibroblast cell line
Experimental: as §1, §2, §3

phospho (Ser 473) Akt [5] = experiment: Western blot, pAkt in HeLa cells; assay type: cell-based, human; conditions: IC50 concentration, 24 h and 48 h
Experimental: as §4

[6] = system: phospho (Tyr 1135) -IGF1 Receptor β; experiment: Western blot, IGF1 Receptor β activated form in HepG2 cells; assay type: cell-based, human; conditions: IC50 concentration, 24 and 48 h treatments
Experimental: as §4

[7] = system: HeLa (cervical carcinoma); experiment: MTT assay, HeLa; assay type: cell-based; conditions: Homo sapiens, 72 h
Experimental: as §1, §2, §3

[8] = system: HepG2 (hepatocellular carcinoma); experiment: MTT assay, HepG2; assay type: cell-based; conditions: Homo sapiens, 72 h
Experimental: as §1, §2, §3

[9] = system: SW620 (colorectal adenocarcinoma, metastatic); experiment: MTT assay, SW620; assay type: cell-based; conditions: Homo sapiens, SW-620, 72 h
Experimental: as §1, §2, §3

- IC50 [1]: 49.5 µM
- IC50 at 72 h [4]: > 100 µM
- IC50 [7]: 42.7 µM
- IC50 [8]: 39.5 µM
- IC50 [9]: 79.9 µM
Compound: Cc1c(O)cc(C(C)C)c2oc(-c3ccc(Cl)cc3)nc12 [1e, 2-(4-Chlorophenyl)-4-methyl-7-isopropyl-1,3-benzoxazole-5-ol]
- inhibition of Akt phosphorylation (western blot) (phospho (Ser 473) Akt [2]): weak, time and concentration dependent inhibition
- IGF1 Receptor β activated form expression (western blot) [3]: no significant changes
- inhibition of Akt phosphorylation (western blot) (phospho (Ser 473) Akt [5]): weak, time and concentration dependent inhibition
- IGF1 Receptor β activated form expression (western blot) [6]: no significant changes
